What was measured:
[1] = molecular target: T1, zfSARM1 (Danio rerio, UniProt F1QWA8); assay: Effect of hSARM1 inhibitors on zfSARM1 NADase activity (ADPR by HPLC); assay type: biochemical, Zebrafish; details: 50 μM NAD+; ADPR production by HPLC
T1 sequence (F1QWA8 1-713): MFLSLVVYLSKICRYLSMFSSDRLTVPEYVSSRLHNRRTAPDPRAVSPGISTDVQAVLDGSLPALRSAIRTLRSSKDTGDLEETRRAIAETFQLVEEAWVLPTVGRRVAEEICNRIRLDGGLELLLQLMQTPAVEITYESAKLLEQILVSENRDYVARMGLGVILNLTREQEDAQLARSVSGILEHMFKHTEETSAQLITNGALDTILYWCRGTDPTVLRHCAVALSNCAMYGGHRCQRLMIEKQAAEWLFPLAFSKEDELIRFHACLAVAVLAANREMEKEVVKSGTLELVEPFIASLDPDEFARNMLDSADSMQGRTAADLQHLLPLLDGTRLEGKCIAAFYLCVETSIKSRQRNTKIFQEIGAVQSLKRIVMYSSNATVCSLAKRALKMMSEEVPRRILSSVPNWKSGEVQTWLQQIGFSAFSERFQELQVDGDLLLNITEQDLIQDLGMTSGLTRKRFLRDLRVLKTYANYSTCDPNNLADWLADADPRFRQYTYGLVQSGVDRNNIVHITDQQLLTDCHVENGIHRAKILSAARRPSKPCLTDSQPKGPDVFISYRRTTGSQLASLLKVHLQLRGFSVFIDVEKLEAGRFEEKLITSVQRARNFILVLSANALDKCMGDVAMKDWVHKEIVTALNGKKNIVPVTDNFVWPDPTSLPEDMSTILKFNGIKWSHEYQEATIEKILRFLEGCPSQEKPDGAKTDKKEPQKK

[2] = molecular target: T2, hSARM1 (Homo sapiens, UniProt Q6SZW1); assay: High-throughput resazurin fluorescence inhibitor screen; assay type: biochemical; details: 1 mM NAM; pre-incubation 10 minutes at room temperature
T2 construct: hSARM1w.t; (26ERL . . . GPT724) that was not mutated in E642, was also expressed and isolated; 6xHis (N); TEV cleavage site (N); made in house; host or cells: HEK293F suspension cells
T2 sequence (Q6SZW1 with tags, fused parts or gaps): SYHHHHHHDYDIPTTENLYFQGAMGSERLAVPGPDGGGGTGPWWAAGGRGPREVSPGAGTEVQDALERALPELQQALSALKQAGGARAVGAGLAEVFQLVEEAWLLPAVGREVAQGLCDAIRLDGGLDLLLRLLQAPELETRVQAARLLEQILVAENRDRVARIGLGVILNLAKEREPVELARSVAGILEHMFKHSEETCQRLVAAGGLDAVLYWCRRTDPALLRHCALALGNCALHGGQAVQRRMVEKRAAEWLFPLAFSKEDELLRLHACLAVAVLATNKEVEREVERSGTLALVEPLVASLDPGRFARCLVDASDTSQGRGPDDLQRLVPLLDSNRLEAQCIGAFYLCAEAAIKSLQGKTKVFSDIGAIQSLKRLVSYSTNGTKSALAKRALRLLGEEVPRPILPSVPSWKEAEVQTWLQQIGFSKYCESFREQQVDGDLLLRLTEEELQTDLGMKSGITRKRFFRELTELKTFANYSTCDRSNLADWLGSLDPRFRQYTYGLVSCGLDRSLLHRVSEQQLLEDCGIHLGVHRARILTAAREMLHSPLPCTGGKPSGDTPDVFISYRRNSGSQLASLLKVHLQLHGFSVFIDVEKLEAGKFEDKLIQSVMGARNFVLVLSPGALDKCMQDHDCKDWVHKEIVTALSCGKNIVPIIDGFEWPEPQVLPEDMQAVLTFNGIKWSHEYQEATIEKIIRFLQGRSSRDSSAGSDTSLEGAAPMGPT
Experimental: The high-throughput inhibitor-screening assay was preformed using the MultiDrop 384 microplate dispenser (Thermo Scientific) and 1536-well black/black non-binding Microplates (Greiner Bio-One).
First, 10 nano-liters of each of the 142000 screened compounds, solubilized in DMSO, were plated using Echo® 550 Liquid Handler (Sunny vale, CA, USA). Then. 5 micro liters of purified SARM1 (at 50 Nano-Molar concentration) in 25 mM HEPES pH 7.5, 150 mM NaCl were added to each well for 10 minutes incubation in 25° C. Next, 2.5 Micro Liters of NAD+(in 0.25 Micro-Molar concentration, in 25 mM HEPES pH 7.5, 150 mM NaCl) were added to each well and incubated for 70 min at 37° C. The compounds concentration at this point were […].
Measurement of NAD+ concentrations were made by a modified enzymatic coupled cycling assay. […] Fluorescent signals were measured by PheraStar FS plate reader (BMG Labtech, Ortenberg, Germany) at 540-nm excitation and 590-nm emission wavelengths. […]
To discover new and effective inhibitors for hSARM1, we have applied a modified fluorescence assay for high throughput screening. The adaptations introduced in this assay aim to achieve: stable fluorescent signal over time, good sensitivity for inhibition by screened compounds, high signal-to-noise, good reproducibility, accuracy, and diminishing of false-positive readouts. […]

IC50 [1]: 227 µM | fluorescence output response [2]: hSARM1 inhibition
Compound: NC(=O)c1cccnc1 [NAM, nicotinamide, reference compound]

— US20220241416A1, “METHODS FOR THE IDENTIFICATION OF SARM1 NADASE ACTIVITY INHIBITORS AND USES THEREOF” (Bar Ilan University, priority 2021, published 2022)
